Assay [1] has as its system primary human T-cells.
The subject of assay [2] is primary human T-cells. In words: Proliferation assay after 5 days (CellTiter-Glo, CD3 stimulation; PBS counter screen). The class given is cell-based. The settings on record: Homo sapiens, T-cell, 120 h, CD3 stimulation; for Emax: 5 days, normalized to reference compound A1 as stimulator control = 100%, DMSO neutral control, read-out: Emax proliferation (% activation); for EC50: primary human T-cells, CellTiter-Glo after 5 days, EC50 of fitted sigmoidal curve, read-out: Tcell Proliferation CD3 EC50. A digest of the protocol:
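Primary human T-cells, with or without CD3 stimulation, exposed to compounds for 5 days; cell number read as ATP by CellTiter-Glo 2.0 luminescence after 45 min equilibration and 15 min reagent incubation at room temperature. Compounds activating unstimulated cells or reducing viability were flagged.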

For 21 compounds, EC50 and Emax results are on record in patent US20240368150A1 (Hoffmann-La Roche Inc., priority 2021, published 2024).

Where two headings read alike, the source gives them in different places. Where only a bound is given, the exact number is not on record here.

The compound `N[C@H]1CS(=O)(=O)c2ccc(-c3nnc(N4CC5(CCCO5)C4)o3)cc2N(Cc2ccc(Cl)cc2)C1=O` [Example 404, (3R)-3-amino-5-[(4-chlorophenyl)methyl]-7-[5-(5-oxa-2-azaspiro[3.4]octan-2-yl)-1,3,4-oxadiazol-2-yl]-1,1-dioxo-2,3-dihydro-1λ^6,5-benzothiazepin-4-one] had an EC50 in the assay on primary human T-cells [1] of 8.11 µM. In the assay on primary human T-cells [2], the Emax came out at 101% and the EC50 amounted to 2.35 µM.
The corresponding values for `N[C@H]1CS(=O)(=O)c2ccc(-c3nnc(N4CC5(CCCOC5)C4)o3)cc2N(Cc2ccc(Cl)cc2)C1=O` [Example 405, (3R)-3-amino-5-[(4-chlorophenyl)methyl]-7-[5-(6-oxa-2-azaspiro[3.5]nonan-2-yl)-1,3,4-oxadiazol-2-yl]-1,1-dioxo-2,3-dihydro-1λ^6,5-benzothiazepin-4-one] are 1.32 µM, 86% and 1.08 µM.
Consider `N[C@H]1CS(=O)(=O)c2ccc(-c3nnc(N4CCOC5CC54)o3)cc2N(Cc2ccc(Cl)cc2)C1=O` (stereo partly drawn) [Example 408, (3R)-3-amino-5-[(4-chlorophenyl)methyl]-7-[5-(2-oxa-5-azabicyclo[4.1.0]heptan-5-yl)-1,3,4-oxadiazol-2-yl]-1,1-dioxo-2,3-dihydro-1λ^6,5-benzothiazepin-4-one], for which the EC50 in the assay with primary human T-cells [1] is above 10 µM; with primary human T-cells [2], 4.89 µM. Further, in the assay with primary human T-cells [2], the Emax is 88%.
The matching figures for `N[C@H]1CS(=O)(=O)c2ccc(-c3nnc(N4CCOCC4)o3)cc2N(Cc2ccc(Cl)cc2)C1=O` [Example 410, (3R)-3-amino-5-[(4-chlorophenyl)methyl]-7-(5-morpholino-1,3,4-oxadiazol-2-yl)-1,1-dioxo-2,3-dihydro-1λ^6,5-benzothiazepin-4-one]: 7.13 µM, 1.16 µM and 109%.
Compound `N[C@H]1CS(=O)(=O)c2ccc(-c3nnc(N4CCOC5(CC5)C4)o3)cc2N(Cc2ccc(Cl)cc2)C1=O` [Example 411, (3R)-3-amino-5-[(4-chlorophenyl)methyl]-7-[5-(4-oxa-7-azaspiro[2.5]octan-7-yl)-1,3,4-oxadiazol-2-yl]-1,1-dioxo-2,3-dihydro-1λ^6,5-benzothiazepin-4-one] came in with an EC50 in the assay on primary human T-cells [1] above 10 µM. Besides, in the assay with primary human T-cells [2], the Emax turned out to be 78% and the EC50 came to 0.454 µM.
As to `N[C@H]1CS(=O)(=O)c2ccc(-c3nnc(C4(N)CCCC4)o3)cc2N(Cc2ccc(OC(F)(F)F)cc2)C1=O` [Example 414, (3R)-3-amino-7-[5-(1-aminocyclopentyl)-1,3,4-oxadiazol-2-yl]-1,1-dioxo-5-[[4-(trifluoromethoxy)phenyl]methyl]-2,3-dihydro-1λ^6,5-benzothiazepin-4-one], the EC50 amounted to 4.39 µM in the assay on primary human T-cells [1] and 2.59 µM in the assay with primary human T-cells [2]. Moreover, in the assay with primary human T-cells [2], the Emax was 83%.
Consider `N[C@H]1CS(=O)(=O)c2ccc(-c3nnc(C(F)(F)C(F)(F)F)o3)cc2N(Cc2ccc(OC(F)(F)F)cc2)C1=O` [Example 415, (3R)-3-amino-1,1-dioxo-7-[5-(1,1,2,2,2-pentafluoroethyl)-1,3,4-oxadiazol-2-yl]-5-[[4-(trifluoromethoxy)phenyl]methyl]-2,3-dihydro-1λ^6,5-benzothiazepin-4-one], for which the EC50 was 0.443 µM in the assay with primary human T-cells [1] and 6.23 µM in the assay with primary human T-cells [2]. In addition, in the assay with primary human T-cells [2], the Emax is 64%.
The compound `N[C@H]1CS(=O)(=O)c2ccc(-c3nnc(C4(N)CCOCC4)o3)cc2N(Cc2ccc(OC(F)(F)F)cc2)C1=O` [Example 418, (3R)-3-amino-7-[5-(4-aminotetrahydropyran-4-yl)-1,3,4-oxadiazol-2-yl]-1,1-dioxo-5-[[4-(trifluoromethoxy)phenyl]methyl]-2,3-dihydro-1λ^6,5-benzothiazepin-4-one] returned an EC50 with primary human T-cells [1] of 5.74 µM. Further, in the assay on primary human T-cells [2], the Emax turned out to be 52% and the EC50 was found to be 9.5 µM.
In turn, `CNC(C)(C)c1nnc(-c2ccc3c(c2)N(Cc2ccc(OC(F)(F)F)cc2)C(=O)[C@@H](N)CS3(=O)=O)o1` [Example 419, (3R)-3-amino-7-[5-[1-methyl-1-(methylamino)ethyl]-1,3,4-oxadiazol-2-yl]-1,1-dioxo-5-[[4-(trifluoromethoxy)phenyl]methyl]-2,3-dihydro-1λ^6,5-benzothiazepin-4-one] returned an EC50 in the assay with primary human T-cells [1] of 1.51 µM. Also, in the assay on primary human T-cells [2], the Emax stood at 62% and the EC50 was determined as 7.27 µM.
`CC(C)(C#N)c1nnc(-c2ccc3c(c2)N(Cc2ccc(OC(F)(F)F)cc2)C(=O)[C@@H](N)CS3(=O)=O)o1` [Example 420, 2-[5-[(3R)-3-amino-1,1,4-trioxo-5-[[4-(trifluoromethoxy)phenyl]methyl]-2,3-dihydro-1λ^6,5-benzothiazepin-7-yl]-1,3,4-oxadiazol-2-yl]-2-methyl-propanenitrile] registered an EC50 in the assay with primary human T-cells [1] of 1.35 µM. In the assay with primary human T-cells [2], the Emax is 167% and the EC50 was 1.59 µM.
The corresponding values for `CN1CC(c2nnc(-c3ccc4c(c3)N(Cc3ccc(OC(F)(F)F)cc3)C(=O)[C@@H](N)CS4(=O)=O)o2)CC(F)(F)C1` (stereo partly drawn) [Example 421, (3R)-3-amino-7-[5-(5,5-difluoro-1-methyl-3-piperidyl)-1,3,4-oxadiazol-2-yl]-1,1-dioxo-5-[[4-(trifluoromethoxy)phenyl]methyl]-2,3-dihydro-1λ^6,5-benzothiazepin-4-one] are 3.24 µM, 123% and 2.48 µM.
The matching figures for `COC(=O)N1CC2CC(c3nnc(-c4ccc5c(c4)N(Cc4ccc(OC(F)(F)F)cc4)C(=O)[C@@H](N)CS5(=O)=O)o3)(C2)C1` [Example 422, Methyl 1-[5-[(3R)-3-amino-1,1,4-trioxo-5-[[4-(trifluoromethoxy)phenyl]methyl]-2,3-dihydro-1λ^6,5-benzothiazepin-7-yl]-1,3,4-oxadiazol-2-yl]-3-azabicyclo[3.1.1]heptane-3-carboxylate]: 0.835 µM, 102% and 1.83 µM.
The corresponding values for `COC(=O)N1CCC(c2nnc(-c3ccc4c(c3)N(Cc3ccc(OC(F)(F)F)cc3)C(=O)[C@@H](N)CS4(=O)=O)o2)C1` (stereo partly drawn) [Example 423, methyl 3-[5-[(3R)-3-amino-1,1,4-trioxo-5-[[4-(trifluoromethoxy)phenyl]methyl]-2,3-dihydro-1λ^6,5-benzothiazepin-7-yl]-1,3,4-oxadiazol-2-yl]pyrrolidine-1-carboxylate] are 1.5 µM, 78% and 1.72 µM.
In turn, `COC(F)(c1nnc(-c2ccc3c(c2)N(Cc2ccc(OC(F)(F)F)cc2)C(=O)[C@@H](N)CS3(=O)=O)o1)C(F)(F)F` (stereo partly drawn) [Example 424, (3R)-3-amino-1,1-dioxo-7-[5-(1,2,2,2-tetrafluoro-1-methoxy-ethyl)-1,3,4-oxadiazol-2-yl]-5-[[14-(trifluoromethoxy)phenyl]methyl]-2,3-dihydro-1λ^6,5-benzothiazepin-4-one] yielded an EC50 in the assay with primary human T-cells [1] of 0.0694 µM. In addition, in the assay with primary human T-cells [2], the Emax was determined as 88% and the EC50 was determined as 0.0723 µM.
In the assay on primary human T-cells [1], `CC(C)(C)c1nnc(-c2ccc3c(c2)N(Cc2ccc(OCC(F)(F)F)cc2)C(=O)[C@@H](N)CS3(=O)=O)o1` [Example 429, (3R)-3-amino-7-(5-tert-butyl-1,3,4-oxadiazol-2-yl)-1,1-dioxo-5-[[4-(2,2,2-trifluoroethoxy)phenyl]methyl]-2,3-dihydro-1λ^6,5-benzothiazepin-4-one] came in with an EC50 of 0.96 µM. Moreover, in the assay on primary human T-cells [2], the Emax was 103% and the EC50 turned out to be 4.85 µM.
The corresponding values for `CC(C)(C)c1nnc(-c2ccc3c(c2)N(Cc2ccc(OCC4CC4)cc2)C(=O)[C@@H](N)CS3(=O)=O)o1` [Example 431, (3R)-3-amino-7-(5-tert-butyl-1,3,4-oxadiazol-2-yl)-5-[[4-(cyclopropylmethoxy)phenyl]methyl]-1,1-dioxo-2,3-dihydro-1λ^6,5-benzothiazepin-4-one] are 4.08 µM, 110% and 1.93 µM.
Regarding `CC(C)(C)c1nnc(-c2ccc3c(c2)N(Cc2ccc(OCC(F)F)cc2)C(=O)[C@@H](N)CS3(=O)=O)o1` [Example 432, (3R)-3-amino-7-(5-tert-butyl-1,3,4-oxadiazol-2-yl)-5-[[4-(2,2-difluoroethoxy)phenyl]methyl]-1,1-dioxo-2,3-dihydro-1λ^6,5-benzothiazepin-4-one], the EC50 in the assay on primary human T-cells [1] was determined as 2.7 µM; in the assay on primary human T-cells [2], 1.44 µM. For the same compound, the Emax with primary human T-cells [2] was determined as 103%.
For the compound `CC(C)(C)c1nnc(-c2ccc3c(c2)N(Cc2ccc(OCC4CCOCC4)cc2)C(=O)[C@@H](N)CS3(=O)=O)o1` [Example 433, (3R)-3-amino-7-(5-tert-butyl-1,3,4-oxadiazol-2-yl)-1,1-dioxo-5-[[4-(tetrahydropyran-4-ylmethoxy)phenyl]methyl]-2,3-dihydro-1λ^6,5-benzothiazepin-4-one], the EC50 was 5.6 µM with primary human T-cells [1] and 4.79 µM in the assay on primary human T-cells [2]. Further, the Emax in the assay on primary human T-cells [2] amounted to 105%.
Compound `CC(C)(C)c1nnc(-c2ccc3c(c2)N(Cc2ccc(OC4CCCCC4)cc2)C(=O)[C@@H](N)CS3(=O)=O)o1` [Example 434, (3R)-3-amino-7-(5-tert-butyl-1,3,4-oxadiazol-2-yl)-5-[[4-(cyclohexoxy)phenyl]methyl]-1,1-dioxo-2,3-dihydro-1λ^6,5-benzothiazepin-4-one] gave an EC50 with primary human T-cells [1] of 6.16 µM. Also, in the assay with primary human T-cells [2], the Emax came to 130%.
In the assay with primary human T-cells [1], `CC(C)(C)c1nnc(-c2ccc3c(c2)N(Cc2ccc(OC4CC4)cc2)C(=O)[C@@H](N)CS3(=O)=O)o1` [Example 435] yielded an EC50 of 3.28 µM. Further, in the assay with primary human T-cells [2], the Emax is 117% and the EC50 is 0.671 µM.
Take `CC(C)(C)c1nnc(-c2ccc3c(c2)N(Cc2ccc(OC4CCOCC4)cc2)C(=O)[C@@H](N)CS3(=O)=O)o1` [Example 436, (3R)-3-amino-7-(5-tert-butyl-1,3,4-oxadiazol-2-yl)-1,1-dioxo-5-[(4-tetrahydropyran-4-yloxyphenyl)methyl]-2,3-dihydro-1λ^6,5-benzothiazepin-4-one]: in the assay on primary human T-cells [1], the EC50 is 4.23 µM. Moreover, in the assay on primary human T-cells [2], the Emax was determined as 66% and the EC50 was 0.94 µM.
